For orientation: IC50 means the concentration at which inhibition is half-maximal. Higher therefore signals lower potency.

The values that follow come from US20050192347A1, “Urea and thiourea compounds and compositions for cholesterol management and related uses” (priority 2003, published 2005).

For assay [1], the system named is primary rat hepatocytes. In words: Inhibition of lipid synthesis ([1-14C]-acetate incorporation) in primary cultures of rat hepatocytes. In kind it is cell-based. The settings on record: 0-300 μM. Here is the method:
Compounds were tested for inhibition of lipid synthesis in primary cultures of rat hepatocytes. Male Sprague-Dawley rats were anesthetized with intraperitoneal injection of sodium pentobarbital (80 mg/kg). Rat hepatocytes were isolated essentially as described by the method of Seglen (Seglen, P. O. Hepatocyte suspensions and cultures as tools in experimental carcinogenesis. J. Toxicol. Environ. Health 1979, 5, 551-560). Hepatocytes were suspended in Dulbecco's Modified Eagles Medium containing 25 mM D-glucose, 14 mM HEPES, 5 mM L-glutamine, 5 mM leucine, 5 mM alanine, 10 mM lactate, 1 mM pyruvate, 0.2% bovine serum albumin, 17.4 mM non-essential amino acids, 20% fetal bovine serum, 100 nM insulin and 20 μg/mL gentamycin) and plated at a density of 1.5×10^5 cells/cm^2 on collagen-coated 96-well plates. Four hours after plating, media was replaced with the same media without serum. Cells were grown overnight to allow formation of monolayer cultures. Lipid synthesis incubation conditions were initially assessed to ensure the linearity of [1-^14C]-acetate incorporation into hepatocyte lipids for up to 4 hours. Hepatocyte lipid synthesis inhibitory activity was assessed during incubations in the presence of 0.25 μCi [1-^14C]-acetate/well (final radiospecific activity in assay is 1 Ci/mol) and 0, 1, 3, 10, 30, 100 or 300 μM of compounds for 4 hours. At the end of the 4-hour incubation period, medium was discarded and cells were washed twice with ice-cold phosphate buffered saline and stored frozen prior to analysis. To determine total lipid synthesis, 170 μl of MicroScint-E® and 50 μl water was added to each well to extract and partition the lipid soluble products to the upper organic phase containing the scintillant. Lipid radioactivity was assessed by scintillation spectroscopy in a Packard TopCount NXT.

The test system of assay [2] is obese female Zucker rats. In words: Oral daily treatment of obese female Zucker rats for fourteen days: serum lipids, glycemic control indicators, body weight. In kind it is in vivo, rat. The settings on record: 14 days; for Glucose, Percent Change from Pre-treatment: blood, 6-hour fast; for Glucose, Percent Change from Pre-treatment / BHA, Percent Change from Pre-treatment / NEFA, Percent Change from Pre-treatment / HDL-C/nonHDL-C / HDL-C, Percent Change from Pre-treatment / Insulin, Percent Change from Pre-treatment / Non HDL-C, Percent Change from Pre-treatment / TC, Percent Change from Pre-treatment / TG, Percent Change from Pre-treatment: oral; for % wt. gain: oral gavage; for BHA, Percent Change from Pre-treatment: serum beta hydroxy butyric acid; for NEFA, Percent Change from Pre-treatment: serum non-esterified fatty acids; for HDL-C/nonHDL-C: serum ratio; for HDL-C, Percent Change from Pre-treatment / Insulin, Percent Change from Pre-treatment / Non HDL-C, Percent Change from Pre-treatment / TC, Percent Change from Pre-treatment / TG, Percent Change from Pre-treatment: serum. Here is the method: In a number of different experiments, illustrative compounds A and A1 of the invention were administered daily at a dose of up to 100 mg/kg to chow-fed obese female Zucker rats for fourteen days in the morning by oral gavage in 1.5% carboxymethylcellulose/0.2% Tween-20 or 20% ethanol/80% polyethylene glycol (dosing vehicles). Animals were weighed daily. Animals were allowed free access to rodent chow and water throughout the study except on days of blood sampling where food was restricted for six hours prior to blood sampling. Blood glucose was determined after the 6-hour fast in the afternoon without anesthesia from a tail vein. Serum was also prepared from pretreatment blood samples subsequently obtained from the orbital venous plexus (with O2/CO2 anesthesia) and following the fourteenth dose at sacrifice from the heart following O2/CO2 anesthesia. Serums were assayed for lipoprotein cholesterol profiles, triglycerides, total cholesterol, NonHDL cholesterol, HDL cholesterol, the ratio of HDL cholesterol to that of Non-HDL cholesterol, insulin, non-esterified fatty acids, and beta hydroxy butyric acid. The percent body weight gain and the ratio of liver to body weight was also determined. These are shown as absolute values or as a percent change of the pretreatment values in Table 4. [drawing 300]

[3] abbreviates: Rattus norvegicus, Hepatocyte, 4 h.

For the compound `COC(=O)CCCNC(=O)NCCCCCC(C)(CO)c1ccccc1` (centres unmarked) [Compound 230], the IC50 in assay [1] (setting [3]) turned out to be 103 µM.

For `CC(CO)(CCCCCNC(=O)NCCc1ccccc1)c1ccccc1` (centres unmarked) [Compound 227, 1-(7-Hydroxy-6-methyl-6-phenylheptyl)-3-phenethylurea], in assay [1] (setting [3]), the IC50 is 223 µM.

Take `CC(CO)(CCCCCNC(=O)NCCCCC(C)(CO)c1ccccc1)c1ccccc1` (centres unmarked) [Compound 226, 1-(6-Hydroxy-5-methyl-5-phenylhexyl)-3-(7-hydroxy-6-methyl-6-phenylheptyl)urea]: inhibition in assay [1] (setting [3]) was half-maximal at 88 µM (IC50).

Turning to `CC(CO)(CCCCNC(=O)NCCCc1ccccc1)c1ccccc1` (centres unmarked) [Compound 223, 1-(6-Hydroxy-5-methyl-5-phenylhexyl)-3-(3-phenylpropyl)urea], the values for the IC50 in assay [1] (4 hours) and in assay [1] (setting [3]) were 77 µM and 137 µM, respectively.

Compound `CC(C)(CO)CCCCNC(=O)NCCCCc1ccccc1` [Compound 217, 1-(6-Hydroxy-5,5-dimethylhexyl)-3-(4-phenylbutyl)urea] gave an IC50 in assay [1] (setting [3]) of 221 µM.

Turning to `CC(CO)(CCCCNC(=O)NCCc1ccccc1)c1ccccc1` (centres unmarked) [Compound 222, 1-(6-Hydroxy-5-methyl-5-phenylhexyl)-3-phenethylurea], the IC50 in assay [1] (setting [3]) worked out at 264 µM.

The compound `CC(C)(CO)CCCCNC(=O)NCCCc1ccccc1` [Compound 216, 1-(6-Hydroxy-5,5-dimethylhexyl)-3-(3-phenylpropyl)urea] had an IC50 in assay [1] (setting [3]) of 51 µM.

In assay [1] (setting [3]), `CCOC(=O)CCCCCNC(=O)NCCCCC(C)(C)CO` [Compound 219, Ethyl 6-(3-(6-hydroxy-5,5-dimethylhexyl)ureido)hexanoate] came in with an IC50 of 82 µM.

`CC(C)(CO)CCCCNC(=O)NCCCC(C)(C)CO` [Compound 213, 1-(5-Hydroxy-4,4-dimethylpentyl)-3-(6-hydroxy-5,5-dimethylhexyl)urea] came in with an IC50 in assay [1] (setting [3]) of 34 µM.

The compound `CC(CO)(CCCCCNC(=O)NCCCc1ccccc1)c1ccccc1` (centres unmarked) [Compound 228, 1-(7-hydroxy-6-methyl-6-phenylheptyl)-3-(3-phenylpropyl)urea] showed an IC50 in assay [1] (setting [3]) of 101 µM.

As for `CC(C)(CO)CCCCNC(=O)NCCCCC(C)(C)CO` [A, 1,3-bis-(6-hydroxy-5,5-dimethyl-hexyl)-urea], in assay [2] (100 mg/kg/day), the “Glucose, Percent Change from Pre-treatment” value (from here on “Glucose, Percent Change”) is 2%; the “% wt. gain” value is 4%; the “BHA, Percent Change from Pre-treatment” value is 172%; the “NEFA, Percent Change from Pre-treatment” value came out at 8%. Also, in assay [2] (100 mg/kg/day), the HDL-C/nonHDL-C amounted to 2.7; the “HDL-C, Percent Change from Pre-treatment” value is given as 92%; the “Insulin, Percent Change from Pre-treatment” value (from here on “Insulin, Percent Change”) came out at 60%; the “Non HDL-C, Percent Change from Pre-treatment” value (from here on “Non HDL-C, Percent Change”) is given as −5%. For the same compound, in assay [2] (100 mg/kg/day), the “TC, Percent Change from Pre-treatment” value turned out to be 50% and the “TG, Percent Change from Pre-treatment” value is on record as −31%.

In assay [1] (setting [3]), `CC(C)(CO)CCCCNC(=O)NCCCCC(C)(CO)c1ccccc1` (centres unmarked) [Compound 220, 1-(6-Hydroxy-5,5-dimethylhexyl)-3-(6-hydroxy-5-methyl-5-phenylhexyl)urea] gave an IC50 of 8.8 µM.

Turning to `CC(C)(CO)CCCCNC(=S)NCCCCC(C)(C)CO` [Compound A1, 1,3-bis-(6-hydroxy-5,5-dimethylhexyl)-thiourea], in assay [2] (30 mg/kg/day), the “Glucose, Percent Change” value is −4%; the “% wt. gain” value is 10%; the “BHA, Percent Change from Pre-treatment” value worked out at 283%; the “NEFA, Percent Change from Pre-treatment” value is listed as 11%. In assay [2] (30 mg/kg/day), the HDL-C/nonHDL-C was determined as 2.0; the “HDL-C, Percent Change from Pre-treatment” value was −11%; the “Insulin, Percent Change” value was −29%; the “Non HDL-C, Percent Change” value is reported as 32%. For the same compound, in assay [2] (30 mg/kg/day), the “TC, Percent Change from Pre-treatment” value was −9% and the “TG, Percent Change from Pre-treatment” value amounted to 7%. In assay [2] (100 mg/kg/day), the “Glucose, Percent Change” value is given as −15%; the “% wt. gain” value came out at 7%; the “BHA, Percent Change from Pre-treatment” value is recorded as 305%; the “NEFA, Percent Change from Pre-treatment” value was found to be 34%. In assay [2] (100 mg/kg/day), the HDL-C/nonHDL-C was 1.3; the “HDL-C, Percent Change from Pre-treatment” value is listed as 2%; the “Insulin, Percent Change” value amounted to 10%; the “Non HDL-C, Percent Change” value is given as −29%. Further, in assay [2] (100 mg/kg/day), the “TC, Percent Change from Pre-treatment” value is on record as −7% and the “TG, Percent Change from Pre-treatment” value is −15%.

In assay [1] (setting [3]), `CCOC(=O)CCCCCNC(=O)NCCCCC(C)(CO)c1ccccc1` (centres unmarked) [Compound 225, Ethyl 6-(3-(6-hydroxy-5-methyl-5-phenylhexyl)ureido)hexanoate] gave an IC50 of 128 µM.

The compound `CC(CO)(CCCCCNC(=O)NCCCCCC(C)(CO)c1ccccc1)c1ccccc1` (centres unmarked) [Compound 231, 1,3-Bis(7-hydroxy-6-methyl-6-phenylheptyl)urea] came in with a concentration for half-maximal inhibition (IC50) in assay [1] (setting [3]) of 39 µM.
